Data published in paper PMC5218480 (PLoS ONE, 2017).

Test system: MV-4-11 cells
Test: Gene expression microarray analysis (Affymetrix PrimeView) and GSEA
Format: cell-based, human
Settings: MV-4-11, 48 hours, 1 μM each

SMILES: Nc1ncn([C@@H]2O[C@H](CO)[C@@H](O)[C@H]2O)c(=O)n1 [azacitidine]
- genes up-regulated greater than 2-fold relative to vehicle control: 62 genes
